{"source": "patent US8535902B2", "about": "“Peptidase substrates” (bioMërieux, S.A., priority 2009, dated 2013)", "experiment_in_all_cases": "Peptidase detection on Columbia medium with substrate, spot inoculation", "type_in_all_cases": "cell-based", "key": {"[1]": {"system": "Bacillus subtilis NCTC 9 372", "conditions": "40 mg substrate in 400 ml Columbia medium; 24 hours at 37° C.; visual reading", "procedure": "(§1) A weight of 40 mg of substrate was dissolved in 4 ml of dimethyl sulfoxide and added to 400 ml of previously autoclaved Columbia medium. The medium was distributed into Petri dishes 90 mm in diameter, in a proportion of 20 ml per dish. Seventeen strains of microorganisms stemming from collections and belonging to various species of bacteria and yeasts are inoculated in spots of approximately 10 000 colony-forming units. The media are incubated for 24 hours at 37° C., and then the colonies formed are examined visually."}, "[2]": {"system": "Yersinia enterocolitica NCTC 11 176", "conditions": "40 mg substrate in 400 ml Columbia medium; 24 hours at 37° C.; visual reading", "procedure": "as §1"}, "[3]": {"system": "Candida glabrata NCPF 3 943", "conditions": "40 mg substrate in 400 ml Columbia medium; 24 hours at 37° C.; visual reading", "procedure": "as §1"}, "[4]": {"system": "Providencia rettgeri NCTC 7 475", "conditions": "40 mg substrate in 400 ml Columbia medium; 24 hours at 37° C.; visual reading", "procedure": "as §1"}, "[5]": {"system": "Serratia marcescens NCTC 10 211", "conditions": "40 mg substrate in 400 ml Columbia medium, 24 hours at 37° C., visual reading", "procedure": "as §1"}, "[6]": {"system": "Escherichia coli NCTC 10 418", "conditions": "40 mg substrate in 400 ml Columbia medium, 24 hours at 37° C., visual reading", "procedure": "as §1"}, "[7]": {"system": "Pseudomonas aeruginosa NCTC 10 662", "conditions": "40 mg substrate in 400 ml Columbia medium; 24 hours at 37° C.; visual reading", "procedure": "as §1"}, "[8]": {"system": "Candida albicans ATCC 90 028", "conditions": "40 mg substrate in 400 ml Columbia medium; 24 hours at 37° C.; visual reading", "procedure": "as §1"}, "[9]": {"system": "Enterococcus faecium NCTC 7 171", "conditions": "40 mg substrate in 400 ml Columbia medium; 24 hours at 37° C.; visual reading", "procedure": "as §1"}, "[10]": {"system": "Staphylococcus epidermidis NCTC 11 047", "conditions": "40 mg substrate in 400 ml Columbia medium; 24 hours at 37° C.; visual reading", "procedure": "as §1"}, "[11]": {"system": "Enterococcus faecalis NCTC 775", "conditions": "40 mg substrate in 400 ml Columbia medium, 24 hours at 37° C., visual reading", "procedure": "as §1"}, "[12]": {"system": "Staphylococcus aureus NCTC 6 571", "conditions": "40 mg substrate in 400 ml Columbia medium; 24 hours at 37° C.; visual reading", "procedure": "as §1"}, "[13]": {"system": "Salmonella typhimurium NCTC 74", "conditions": "40 mg substrate in 400 ml Columbia medium; 24 hours at 37° C.; visual reading", "procedure": "as §1"}, "[14]": {"system": "Enterobacter cloacae NCTC 11 936", "conditions": "40 mg substrate in 400 ml Columbia medium, 24 hours at 37° C., visual reading", "procedure": "as §1"}, "[15]": {"system": "Streptococcus pyogenes NCTC 8 306", "conditions": "40 mg substrate in 400 ml Columbia medium; 24 hours at 37° C.; visual reading", "procedure": "as §1"}, "[16]": {"system": "Staphylococcus aureus NCTC 11 939", "conditions": "40 mg substrate in 400 ml Columbia medium; 24 hours at 37° C.; visual reading", "procedure": "as §1"}, "[17]": {"system": "Listeria monocytogenes NCTC 11 994", "conditions": "40 mg substrate in 400 ml Columbia medium; 24 hours at 37° C.; visual reading", "procedure": "as §1"}}}
{"substance": "Glycyl-2-(4′-aminostyryl)-N-methyl-benzothiazolinium iodide [Gly-ASBM^+]", "values": [{"measurement": "Growth", "setting": "[1]", "value": 2}, {"measurement": "Growth", "setting": "[2]", "value": 2}, {"measurement": "Growth", "setting": "[3]", "value": 0.5}, {"measurement": "Growth", "setting": "[4]", "value": 2}, {"measurement": "Growth", "setting": "[5]", "value": 2}, {"measurement": "Color", "setting": "[5]; colony color", "value": "Orange"}, {"measurement": "Growth", "setting": "[6]", "value": 2}, {"measurement": "Color", "setting": "[6]; colony color", "value": "Pale"}, {"measurement": "Growth", "setting": "[7]", "value": 2}, {"measurement": "Growth", "setting": "[8]", "value": 1}, {"measurement": "Growth", "setting": "[9]", "value": 1}, {"measurement": "Growth", "setting": "[10]", "value": 1}, {"measurement": "Growth", "setting": "[11]", "value": 1}, {"measurement": "Color", "setting": "[11]; colony color", "value": "Pale"}, {"measurement": "Growth", "setting": "[12]", "value": 2}, {"measurement": "Growth", "setting": "[13]", "value": 2}, {"measurement": "Growth", "setting": "[14]", "value": 2}, {"measurement": "Color", "setting": "[14]; colony color", "value": "Pale"}, {"measurement": "Growth", "setting": "[15]", "value": 1}, {"measurement": "Growth", "setting": "[16]", "value": 1}, {"measurement": "Growth", "setting": "[17]", "value": 1}]}
